The source of these data is publication PMC6009935 (Journal of Enzyme Inhibition and Medicinal Chemistry, 2017).

For one test, the target named is T1, DOR (Rattus norvegicus, UniProt P33533).
T1 construct: a: performed in rat whole brain membrane homogenates; from tissue; host or cells: Wistar rat whole brain membrane homogenate
The test is described as follows: Radioligand competition binding with [3H]IleDelt II. The procedure:
(§1) Tris-HCl, EGTA, NaCl, MgCl2 x 6H2O, GDP, the GTP analogue GTPγS, were purchased from Sigma-Aldrich (Budapest, Hungary). Fatty acid free bovine serum albumin (BSA) was purchased from Serva (Heidelberg, Germany). Naloxone was kindly provided by the company Endo Laboratories DuPont de Nemours (Wilmington, DE, USA). HS665 was provided by Schmidhammer’s group (University of Innsbruck, Austria). […]
(§2) purchased from Tocris Bioscience (Bristol, UK).
(§3) DMSO. All compounds were stored in 1 mM stock solution at -20 °C. The radiolabelled GTP analogue, [35S]GTPγS (specific activity: 1000 Ci/mmol) were purchased from Hartmann Analytic (Braunschweig, Germany). [3H]DAMGO (specific activity: 38.8 Ci/mmol),12 [3H]IleDelt II (specific activity: 19,6 Ci/mmol), [3H]WIN55,212-2 (specific activity: 13,1 Ci/mmol) and [3H]HS665 (specific activity: 36.62 Ci/mmol),3 were radiolabeled by the Laboratory of Chemical Biology group in BRC (Szeged, Hungary).
(§4) For membrane homogenate preparations male and female Wistar rats (250-300 g body weight) and male guinea pigs (~700 g body weight, LAL/HA/BR strain) were used. Rats were housed in the local animal house of BRC (Szeged, Hungary), while guinea pigs were housed in LAB-ÁLL Bt.
(§5) (Budapest, Hungary). All the animals were kept in a temperature controlled room (21-24 °C) under a 12:12 light and dark cycle and were provided with water and food ad libitum. All housing and experiments were conducted in accordance with the European Communities Council Directives (2010/63/EU) and the Hungarian Act for the Protection of Animals in Research (XXVIII.tv. 32.§).
(§6) The total number of animals as well as their suffering was minimized.
(§7) Rat and guinea pig brain membrane homogenate preparation for binding assays Rats and guinea pigs were decapitated and their brains were quickly removed. The brains were prepared for membrane preparation as previously described,4 and partly used for binding experiments and partly were further prepared for the [35S]GTPγS binding experiments. Briefly the brains were homogenized, centrifuged in ice-cold 50 mM Tris-HCl (pH 7.4) buffer and incubated at 37 °C for 30 min in a shaking water-bath. After incubation the centrifugation was repeated as described above and the final pellet was suspended in 50 mM Tris-HCl pH 7.4 buffer containing 0.32 M sucrose, and stored at -80 °C. For the [35S]GTPγS binding experiments the final pellet of rat […]
(§8) brain membrane homogenate was suspended in ice-cold TEM (Tris-HCl, EGTA, MgCl2) and stored at -80 °C for further use.
(§9) Radioligand competition binding experiments
(§10) Aliquots of frozen rat brain membrane homogenates were centrifuged (18 000 rpm, 20 min, 4 °C) to remove sucrose and the pellets were suspended in 50 mM Tris-HCl buffer (pH 7.4). Membranes containing 0.4-0.8 mg/mL of protein were incubated in a final volume of 1 mL in the presence of unlabeled 5, 10 and 9 in increasing concentrations (10-11-10-5 M) in the presence of the appropriate radioligand in ~1 nM concentrations at certain temperature and amount of time depending on the radioligand ([3H]DAMGO and [3H]IleDelt II: 35 °C for 45 min; [3H]HS665: 30 °C, 45 min; [3H]WIN55,212-2: 30 °C for 60 min). Experiments performed with [3H]HS665 where incubated […]
(§11) more kappa receptors than the rat brain), while the rest of the radioligands were incubated together with rat whole brain membrane homogenates. Additionally, in experiments performed with […]
(§12) increasing concentrations (10-11-10-5 M) together with 50 mM Tris/HCl, 2.5 mM EGTA, 5 mM MgCl2 and 0.5 mg/mL fatty acid free BSA (pH 7.4). The level of non-specific binding was […]
(§13) binding was determined in the absence of unlabeled compounds. The reaction was terminated by rapid filtration under vacuum (Brandel M24R Cell Harvester), and washed three times with 5 mL ice-cold 50 mM Tris-HCl or 50 mM Tris/HCl, 2.5 mM EGTA, 5 mM MgCl2, 0.5 % BSA (pH 7.4) in case of [3H]WIN55,212-2. The filtration was accomplished through Whatman GF/C ([3H]DAMGO, [3H]IleDelt II and [3H]HS665) or GF/B ([3H]WIN55,212-2) glass fibers. In case of […]

Test [1] addresses T2, cannabinoid receptors (CBR) (Rattus norvegicus, UniProt P20272).
T2 construct: a: performed in rat whole brain membrane homogenates; from tissue; host or cells: Wistar rat whole brain membrane homogenate
The experiment in a line: biochemical. It is filed as binding. The procedure:
as §1, §2, §3, §4, §5, §6, §7, §8, §9, §10, §11, §12, §13

Test [2] deals with hypothalamic synaptosomes. The test is described as follows: In vitro hypothalamic perfusion test (neurotransmitter release). It is filed as cell-based, rat. The note with it: 10 µM. The procedure:
was evaluated with the analysis of variance followed by Dunnett’s post-hoc comparisons using GraphPad Prism 6.03 software. Statistical significance was assumed at least for P<0.05.
In vitro hypothalamic perfusion test
Hypothalamic synaptosomes were obtained from 18 male adult Sprague-Dawley rats (290-340 g), as previously described.9
Then, the synaptosome suspension was incubated at 37°C, under O2/CO2 95%/5%, pH 7.35-7.45, in Krebs-Ringer buffer (mM: NaCl 125, KCl 3, MgSO4 1.2, CaCl2 1.2, Tris-HCl 10, glucose 10, ascorbic acid 1). After the incubation period, identical aliquots of synaptosome suspension (1.24 mg protein determined by bicinchoninic acid protein assay) were layered onto 0.8 μm Millipore filters, placed into 37°C water-jacketed superfusion chambers [18 different chambers for each experiment and perfused with Krebs-Ringer buffer (0.6 mL/min)], and perfusate was collected (2 min fractions) to detect released neurotransmitters by HPLC coupled to electrochemical detection. The analytical conditions for amine identification and quantification in the perfusate fractions were selected on the basis of previous experiments performed on hypothalamus homogenate.10
The experimental protocol includes three phases: 10 min perfusion with Krebs-Ringer buffer in […]
buffer (stimulus); 8 min perfusion with Krebs-Ringer buffer for return to basal condition (post-stimulus). Perfusate was collected starting from the 8th minute of pre-stimulus. Perfusate aliquots were stored at -80°C, then lyophilized and finally suspended in 1 mL HPLC grade water for neurotransmitter quantification. Neurotransmitter release was expressed as mean percentage release recovered in the stimulus and post-stimulus, compared with initial basal conditions (pre-stimulus

In the next test the target is T3, KOR (Cavia porcellus, UniProt P41144).
T3 construct: b: performed in guinea pig whole brain membrane homogenates; from tissue; host or cells: guinea pig (LAL/HA/BR strain) whole brain membrane homogenate
The experiment in a line: Radioligand competition binding with [3H]HS665. Also on record: species or system guinea pig. The procedure: as §1, §2, §3, §4, §5, §6, §7, §8, §9, §10, §11
binding was determined in the absence of unlabeled compounds. […]
A general note: In a radioligand displacement assay an active substance lowers the binding of a labelled ligand.

Setting [3] is: rat whole brain membrane homogenates, logarithm of IC50, negative sign printed.

Read-outs that look alike come from different tables or passages of the source.

For orientation: Ki means the equilibrium dissociation constant of an inhibitor or competing ligand from its target.

Take `C[C@@H](NC(=O)[C@@H](N)Cc1ccc(O)cc1)C(=O)NCC(=O)N[C@@H](Cc1ccccc1)C(N)=O` [Compound 10, Tyr-D-Ala-Gly-Phe-NH2, reference compound]: at DOR, the “DOR binding affinity in words” value was “high affinity”, the IC50 was 316 nM and the Ki worked out at 107 nM. In test [1], the “CBR / CB1R binding affinity in words” value is reported as “did not show any affinity”. The “logIC50 ± S.E.M., [3H]WIN55,212 (CBR)” value in test [1] (setting [3]) is on record as “ambiguous”. For the same compound, in test [2], the “effect on dopamine (DA) release” value is listed as “inhibitory effect”, the “effect on norepinephrine (NE) release” value is “significant stimulatory effect” and the “effect on serotonin (5-HT) release” value is “inhibitory effect”.
Consider `Cc1c(C(=O)NC2CCN(C(=O)[C@H](Cc3ccccc3)NC(=O)CNC(=O)[C@@H](C)NC(=O)[C@@H](N)Cc3ccc(O)cc3)CC2)nn(-c2ccc(Cl)cc2Cl)c1-n1cccc1` [Compound 9], for which the “DOR binding affinity in words” value on DOR is given as “loss in affinity”. In addition, the Ki was found to be 443 nM on DOR (rat whole brain membrane homogenates, Cheng-Prusoff); 5200 nM in test [1] (rat whole brain membrane homogenates, Cheng-Prusoff, read-out: Ki, [3H]WIN55,212 (CBR)); 170 nM on KOR (guinea pig whole brain membrane homogenates, Cheng-Prusoff). Moreover, the IC50 on DOR (rat whole brain membrane homogenates, logarithm of IC50, negative sign printed, read-out: logIC50 ± S.E.M., [3H]IleDelt II (DOR) (converted)) was 1290 nM; in test [1] (rat whole brain membrane homogenates, logarithm of IC50, negative sign printed, read-out: logIC50 ± S.E.M., [3H]WIN55,212 (CBR) (converted)), 6030 nM; on KOR (guinea pig whole brain membrane homogenates, logarithm of IC50, negative sign printed, read-out: logIC50 ± S.E.M., [3H]HS665 (KOR) (converted)) it was 263 nM. Further, the “CBR / CB1R binding affinity in words” value in test [1] was “modest affinity”. The “KOR binding affinity in words” value at KOR is “unexpected improvement of affinity”. Also, the “Selectivity ratio DOR/KOR” value at KOR (ratio of Ki values) was found to be 2.61. Also, in test [2], the “effect on dopamine (DA) release” value is given as “reduced inhibitory effect”. In test [2], the “effect on norepinephrine (NE) release” value is listed as “significant stimulatory effect”. In addition, the “effect on serotonin (5-HT) release” value in test [2] was “no significant effects”.
As to `Cc1c(C(=O)NC2CCNCC2)nn(-c2ccc(Cl)cc2Cl)c1-n1cccc1` [Compound 5], on DOR, the “DOR binding affinity in words” value is “did not bind”. The “logIC50 ± S.E.M., [3H]IleDelt II (DOR)” value on DOR (setting [3]) is listed as “ambiguous”. In addition, the “logIC50 ± S.E.M., [3H]WIN55,212 (CBR)” value in test [1] (setting [3]) is listed as “ambiguous”. Moreover, the “KOR binding affinity in words” value at KOR is on record as “negligible”. Besides, the “effect on dopamine (DA) release” value in test [2] is “decreased”.
